{"source": "ChEMBL document CHEMBL1201862", "about": "“PubChem BioAssay data set” (2004)", "key": {"[1]": {"target": "Melanin-concentrating hormone receptor 1 (Homo sapiens, UniProt Q99705)", "sequence (Q99705 whole entry)": "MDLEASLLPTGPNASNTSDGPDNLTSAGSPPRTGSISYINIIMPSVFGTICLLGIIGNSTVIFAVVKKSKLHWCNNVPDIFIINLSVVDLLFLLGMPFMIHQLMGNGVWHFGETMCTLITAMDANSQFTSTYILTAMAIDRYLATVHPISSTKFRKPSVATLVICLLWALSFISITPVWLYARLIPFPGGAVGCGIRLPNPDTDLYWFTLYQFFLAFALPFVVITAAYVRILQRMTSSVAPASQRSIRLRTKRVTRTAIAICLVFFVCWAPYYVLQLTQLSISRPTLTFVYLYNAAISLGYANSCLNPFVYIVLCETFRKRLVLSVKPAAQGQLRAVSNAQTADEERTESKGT", "experiment": "Late-stage fluorescence-based counterscreen for antagonists of the G-protein coupled receptor 7 (GPR7): cell-based dose response assay to identify antagonists of the melanin-concentrating hormone receptor 1 (MCHR1) Set 6.", "assay_type": "functional"}, "[2]": {"target": "Neuropeptides B/W receptor type 1 (Homo sapiens, UniProt P48145)", "sequence (P48145 whole entry)": "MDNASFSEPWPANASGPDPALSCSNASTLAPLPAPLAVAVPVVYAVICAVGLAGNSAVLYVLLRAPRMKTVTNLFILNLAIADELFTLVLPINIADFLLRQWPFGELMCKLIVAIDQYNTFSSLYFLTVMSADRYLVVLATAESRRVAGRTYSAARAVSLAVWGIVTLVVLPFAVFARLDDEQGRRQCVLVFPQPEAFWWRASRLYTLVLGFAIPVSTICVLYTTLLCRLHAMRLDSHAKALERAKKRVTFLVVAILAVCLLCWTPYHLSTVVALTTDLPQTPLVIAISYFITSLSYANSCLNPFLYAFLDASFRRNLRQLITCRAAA", "experiment": "human NPBW1 receptor blockade, IC50 – cell-based, fluorescence, dose response, set 6, late-stage follow-up (AID 588583)", "assay_type": "functional"}, "[3]": {"target": "ALK tyrosine kinase receptor (Homo sapiens, UniProt Q9UM73)", "assay_type": "functional"}, "Aurora kinase A": {"target": "Aurora kinase A (Homo sapiens, UniProt O14965)", "sequence (O14965 whole entry)": "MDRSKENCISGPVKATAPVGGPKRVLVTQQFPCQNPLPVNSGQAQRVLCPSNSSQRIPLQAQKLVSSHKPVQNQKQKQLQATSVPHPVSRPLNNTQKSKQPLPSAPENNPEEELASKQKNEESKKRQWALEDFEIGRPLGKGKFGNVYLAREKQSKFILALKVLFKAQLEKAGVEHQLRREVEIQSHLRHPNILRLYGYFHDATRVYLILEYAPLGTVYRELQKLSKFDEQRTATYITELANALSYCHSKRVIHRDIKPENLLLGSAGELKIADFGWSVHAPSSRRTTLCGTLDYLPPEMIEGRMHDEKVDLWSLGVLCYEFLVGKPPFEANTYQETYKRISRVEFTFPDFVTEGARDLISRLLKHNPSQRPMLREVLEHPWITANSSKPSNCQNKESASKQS", "assay_type": "functional"}, "Focal adhesion kinase 1": {"target": "Focal adhesion kinase 1 (Homo sapiens, UniProt Q05397)", "sequence (Q05397 whole entry)": "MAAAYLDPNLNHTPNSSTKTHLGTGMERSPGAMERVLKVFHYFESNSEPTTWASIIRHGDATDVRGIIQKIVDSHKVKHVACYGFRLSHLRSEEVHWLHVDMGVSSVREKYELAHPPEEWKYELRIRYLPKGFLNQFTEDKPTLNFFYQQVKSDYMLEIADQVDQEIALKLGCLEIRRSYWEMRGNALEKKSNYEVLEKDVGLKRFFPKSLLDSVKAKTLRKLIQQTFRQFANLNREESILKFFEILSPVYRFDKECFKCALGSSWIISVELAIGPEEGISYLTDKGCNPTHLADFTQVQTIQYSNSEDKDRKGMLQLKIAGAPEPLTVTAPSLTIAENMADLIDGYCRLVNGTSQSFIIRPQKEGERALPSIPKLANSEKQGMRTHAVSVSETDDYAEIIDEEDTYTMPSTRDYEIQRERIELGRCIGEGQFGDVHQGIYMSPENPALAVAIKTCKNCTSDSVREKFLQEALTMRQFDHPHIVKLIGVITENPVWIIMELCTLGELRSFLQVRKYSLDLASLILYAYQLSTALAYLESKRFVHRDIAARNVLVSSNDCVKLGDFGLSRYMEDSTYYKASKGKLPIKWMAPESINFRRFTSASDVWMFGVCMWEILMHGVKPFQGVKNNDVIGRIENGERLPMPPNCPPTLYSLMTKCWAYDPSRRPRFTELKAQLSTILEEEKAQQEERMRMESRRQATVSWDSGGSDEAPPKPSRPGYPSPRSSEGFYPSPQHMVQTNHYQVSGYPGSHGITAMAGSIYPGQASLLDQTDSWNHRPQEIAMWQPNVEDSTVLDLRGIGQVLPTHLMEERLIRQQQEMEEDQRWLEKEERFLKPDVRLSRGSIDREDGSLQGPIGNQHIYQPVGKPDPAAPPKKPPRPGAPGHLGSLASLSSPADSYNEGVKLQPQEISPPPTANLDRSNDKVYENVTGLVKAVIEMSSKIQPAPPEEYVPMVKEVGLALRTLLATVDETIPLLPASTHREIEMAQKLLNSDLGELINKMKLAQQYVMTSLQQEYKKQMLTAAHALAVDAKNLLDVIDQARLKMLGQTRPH", "assay_type": "functional"}, "Aurora kinase B": {"target": "Aurora kinase B (Homo sapiens, UniProt Q96GD4)", "sequence (Q96GD4 whole entry)": "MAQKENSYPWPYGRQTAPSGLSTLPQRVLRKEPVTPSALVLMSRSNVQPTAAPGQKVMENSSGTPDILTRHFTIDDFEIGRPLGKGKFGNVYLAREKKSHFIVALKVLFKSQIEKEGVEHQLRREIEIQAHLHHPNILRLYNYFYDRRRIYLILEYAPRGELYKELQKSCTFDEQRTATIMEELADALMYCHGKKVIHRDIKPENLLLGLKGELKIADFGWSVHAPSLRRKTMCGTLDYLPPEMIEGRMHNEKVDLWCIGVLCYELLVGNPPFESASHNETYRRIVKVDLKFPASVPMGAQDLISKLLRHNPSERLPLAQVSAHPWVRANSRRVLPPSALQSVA", "assay_type": "functional"}, "[4]": {"experiment": "luciferase reporter signal suppression in cells – H4 neuroglioma cells, luminescence, dose response (AID 1990)", "assay_type": "functional, cell-based"}, "[5]": {"experiment": "Luminescence Cell-Based Dose Response HTS to Identify Inhibitors of 5'UTR Stem-Loop Driven Prion Protein mRNA Translation in H4 Neuroglioblastoma Cells. [Related pubchem assays: 1827 (Project Summary), 1813 (Primary HTS)]", "assay_type": "functional"}, "[6]": {"experiment": "alpha-synuclein stem-loop luciferase translation blockers – H4 neuroglioma cells, luminescence, confirmation (AID 1988)", "assay_type": "functional, cell-based"}, "[7]": {"target": "Glycogen synthase kinase-3 beta (Homo sapiens, UniProt P49841)", "sequence (P49841 whole entry)": "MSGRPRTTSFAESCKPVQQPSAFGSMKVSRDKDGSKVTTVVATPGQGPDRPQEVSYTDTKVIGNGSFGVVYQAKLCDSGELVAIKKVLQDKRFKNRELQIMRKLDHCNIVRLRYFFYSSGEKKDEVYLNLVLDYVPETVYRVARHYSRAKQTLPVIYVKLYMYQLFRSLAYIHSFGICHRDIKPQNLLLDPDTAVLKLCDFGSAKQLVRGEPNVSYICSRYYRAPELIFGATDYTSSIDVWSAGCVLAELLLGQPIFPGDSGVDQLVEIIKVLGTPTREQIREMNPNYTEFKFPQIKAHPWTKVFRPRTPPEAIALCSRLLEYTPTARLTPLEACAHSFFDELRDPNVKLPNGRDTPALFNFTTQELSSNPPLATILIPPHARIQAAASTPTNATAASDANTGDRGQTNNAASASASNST", "experiment": "inhibition of human GSK3B activity – biochemical, microfluidics, dry powder samples, set 2, dose response (AID 623989)", "assay_type": "functional"}, "[8]": {"target": "Glycogen synthase kinase-3 alpha (Homo sapiens, UniProt P49840)", "sequence (P49840 whole entry)": "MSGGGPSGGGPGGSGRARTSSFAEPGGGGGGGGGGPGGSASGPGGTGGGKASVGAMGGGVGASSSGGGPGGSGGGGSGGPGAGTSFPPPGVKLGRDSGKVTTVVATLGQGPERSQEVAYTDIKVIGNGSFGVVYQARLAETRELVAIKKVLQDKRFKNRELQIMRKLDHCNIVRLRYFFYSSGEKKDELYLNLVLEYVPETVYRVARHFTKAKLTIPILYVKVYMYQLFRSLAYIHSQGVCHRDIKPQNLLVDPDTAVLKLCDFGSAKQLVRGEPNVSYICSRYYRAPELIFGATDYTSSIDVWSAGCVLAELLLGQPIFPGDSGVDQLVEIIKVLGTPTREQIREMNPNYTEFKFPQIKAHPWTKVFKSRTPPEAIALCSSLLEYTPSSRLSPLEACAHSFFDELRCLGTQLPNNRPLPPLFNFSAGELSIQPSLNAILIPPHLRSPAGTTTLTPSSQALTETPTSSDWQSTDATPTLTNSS", "experiment": "GSK3A enzyme blockers, homolog specificity check – biochemical, microfluidics, dry powder samples, set 2, selectivity assay for GSK3beta inhibitor project, dose response (AID 623978)", "assay_type": "functional"}, "[9]": {"target": "Cyclin-dependent kinase 5/CDK5 activator 1 (Homo sapiens, UniProt Q00535)", "experiment": "inhibitors of human CDK5 activity – biochemical, microfluidic mobility shift, dry powder, set 2, selectivity assay for GSK3beta inhibitor project, dose response (AID 623979)", "assay_type": "functional"}, "[10]": {"target": "DNA dC->dU-editing enzyme APOBEC-3A (Homo sapiens, UniProt P31941)", "sequence (P31941 whole entry)": "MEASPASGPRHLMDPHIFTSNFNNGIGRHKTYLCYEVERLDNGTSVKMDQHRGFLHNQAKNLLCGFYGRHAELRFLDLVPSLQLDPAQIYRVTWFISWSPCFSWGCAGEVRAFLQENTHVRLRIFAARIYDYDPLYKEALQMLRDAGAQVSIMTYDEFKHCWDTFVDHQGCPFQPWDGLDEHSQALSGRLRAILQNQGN", "experiment": "SAR analysis of small molecule inhibitors of APOBEC3A DNA Deaminase via a fluorescence-based single-stranded DNA deaminase assay - Set 2.", "assay_type": "functional", "conditions": "read-out: IC50_Mean"}, "[11]": {"target": "DNA dC->dU-editing enzyme APOBEC-3G (Homo sapiens, UniProt Q9HC16)", "experiment": "SAR analysis of small molecule inhibitors of APOBEC3G DNA Deaminase via a fluorescence-based single-stranded DNA deaminase assay - Set 2.", "assay_type": "functional", "conditions": "read-out: IC50_Mean"}, "[12]": {"experiment": "NIH-3T3 fibroblast cytotoxicity, dose response, cytotoxicity control, cell-based, fluorescence, Alamar Blue, secondary assay (AID 2327);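 note: NIH-3T3 mouse fibroblasts cultured with fluconazole at 8 µg/mL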", "assay_type": "functional"}, "[13]": {"experiment": "fluconazole-exposed Candida albicans growth modulators – fluorescence, retest, confirmation (AID 2467)", "assay_type": "functional, cell-based"}, "[14]": {"target": "Serine/threonine-protein phosphatase (Candida dubliniensis (strain CD36 / CBS 7987 / NCPF 3949 / NRRLY-17841) (Yeast), UniProt B9W6M3)", "sequence (B9W6M3 whole entry)": "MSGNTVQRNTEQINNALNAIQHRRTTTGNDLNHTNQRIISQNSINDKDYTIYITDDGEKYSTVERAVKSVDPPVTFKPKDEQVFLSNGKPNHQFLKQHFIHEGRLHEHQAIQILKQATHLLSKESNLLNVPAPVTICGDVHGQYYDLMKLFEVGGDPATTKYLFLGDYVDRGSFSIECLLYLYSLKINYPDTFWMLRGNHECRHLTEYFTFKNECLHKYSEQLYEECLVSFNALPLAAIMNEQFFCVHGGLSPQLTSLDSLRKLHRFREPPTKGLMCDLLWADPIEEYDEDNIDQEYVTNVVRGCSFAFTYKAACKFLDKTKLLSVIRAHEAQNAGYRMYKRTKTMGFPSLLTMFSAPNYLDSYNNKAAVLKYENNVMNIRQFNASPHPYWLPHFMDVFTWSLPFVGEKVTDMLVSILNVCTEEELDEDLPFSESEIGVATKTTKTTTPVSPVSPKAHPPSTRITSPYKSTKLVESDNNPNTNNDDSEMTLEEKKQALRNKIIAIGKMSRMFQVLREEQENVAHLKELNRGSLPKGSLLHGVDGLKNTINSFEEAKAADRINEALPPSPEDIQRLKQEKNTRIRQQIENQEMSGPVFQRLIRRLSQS", "experiment": "blockers of CaCl2-induced CDRE-lacZ signaling – S. cerevisiae, luminescence, secondary, dose response (AID 2388);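 note: yeast reporter cells carrying a calcineurin-responsive lacZ construct stimulated with calcium chloride; luminescent beta-galactosidase reporter signal in whole cells rather than isolated phosphatase activity; potency for inhibition where a drop in reporter signal means calcineurin blockade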", "assay_type": "functional, cell-based"}, "INS1": {"tested_on": "INS1", "experiment": "INS-1E survival protection against cytokine death – cell-based, luminescence, retest, dose response (AID 449756);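 note: cell death triggered by IL-1 beta plus TNF-alpha plus IFN-gamma mixture; protective hits raise ATP signal compared with cytokine alone wells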", "assay_type": "functional", "conditions": "Rattus norvegicus"}, "[15]": {"target": "ATP-dependent molecular chaperone HSP82 (Candida albicans (strain WO-1) (Yeast), UniProt C4YTQ8)", "sequence (C4YTQ8 whole entry)": "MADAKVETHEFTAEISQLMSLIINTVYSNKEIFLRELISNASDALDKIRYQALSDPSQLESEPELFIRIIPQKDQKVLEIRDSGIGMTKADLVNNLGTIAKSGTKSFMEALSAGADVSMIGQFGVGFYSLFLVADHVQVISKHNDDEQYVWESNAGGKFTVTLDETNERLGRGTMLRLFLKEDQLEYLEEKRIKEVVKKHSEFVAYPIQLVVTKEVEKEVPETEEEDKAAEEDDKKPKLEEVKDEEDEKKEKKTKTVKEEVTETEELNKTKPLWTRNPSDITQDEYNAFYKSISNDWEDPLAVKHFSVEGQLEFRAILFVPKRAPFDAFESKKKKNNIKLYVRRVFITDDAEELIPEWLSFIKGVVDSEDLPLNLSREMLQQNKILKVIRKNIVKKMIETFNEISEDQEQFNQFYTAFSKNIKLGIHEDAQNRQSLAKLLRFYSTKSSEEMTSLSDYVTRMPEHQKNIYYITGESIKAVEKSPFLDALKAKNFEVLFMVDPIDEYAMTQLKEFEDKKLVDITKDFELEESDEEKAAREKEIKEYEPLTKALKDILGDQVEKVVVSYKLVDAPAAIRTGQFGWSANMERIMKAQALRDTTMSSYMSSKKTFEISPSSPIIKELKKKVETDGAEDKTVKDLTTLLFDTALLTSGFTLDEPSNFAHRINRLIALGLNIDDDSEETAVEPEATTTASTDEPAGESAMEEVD", "experiment": "steroid-induced GRE reporter decrease in yeast – S. cerevisiae, luminescence, Hsp90 inhibitor project, dose response (AID 2400);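 note: beta-galactosidase luminescence from glucocorticoid response element reporter as proxy for Hsp90 function; inhibitor potency where signal loss means Hsp90 inhibition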", "assay_type": "functional, cell-based"}}, "note": "Active and inactive are the calls of the source."}
{"smiles": "COc1ccc(Oc2c(Cl)cnn(CC(=O)Nc3ccccc3-c3ccccc3)c2=O)cc1", "values": [{"measurement": "IC50", "setting": "[1]", "value": "1.14 µM (active)"}, {"measurement": "IC50", "setting": "[2]", "value": "1.14 µM (active)"}]}
{"smiles": "Cc1cc(N2CCOCC2)cc2[nH]c(-c3c(NCC(O)c4ccccc4)cc[nH]c3=O)nc12", "note": "(configuration not stated)", "values": [{"measurement": "Ki", "setting": "[3]", "value": "0.0794 µM (active)"}, {"measurement": "Ki", "setting": "Aurora kinase A", "value": "0.251 µM (active)"}, {"measurement": "Ki", "setting": "Focal adhesion kinase 1", "value": "0.0316 µM (active)"}, {"measurement": "Ki", "setting": "Aurora kinase B", "value": "0.0501 µM (active)"}]}
{"smiles": "CCOc1cccc(-c2c(C(=O)N/N=C/c3sccc3C)nnn2-c2nonc2N)c1", "values": [{"measurement": "EC50", "setting": "[4]", "value": "> 120 µM (not active)"}, {"measurement": "EC50", "setting": "[5]", "value": "15.6 µM (active)"}, {"measurement": "EC50", "setting": "[6]", "value": "82.2 µM (active)"}, {"measurement": "AC50", "setting": "[7]", "value": "0.197 µM (active)"}, {"measurement": "AC50", "setting": "[8]", "value": "0.474 µM (active)"}, {"measurement": "AC50", "setting": "[9]", "value": "4.07 µM (active)"}]}
{"smiles": "Cc1ccc(-c2csc3nnc(SCCOc4ccccc4)n23)cc1", "values": [{"measurement": "IC50", "setting": "[10]", "value": "> 99 µM (inactive)"}, {"measurement": "IC50", "setting": "[11]", "value": "> 99 µM (inactive)"}]}
{"smiles": "C/C(=N\\NC(=O)c1cc(C2CC2)nc2ccccc12)c1ccc(O)cc1O", "values": [{"measurement": "EC50", "setting": "[12]", "value": "12.9 µM (inconclusive)"}, {"measurement": "EC50", "setting": "[4]", "value": "11.7 µM (active)"}, {"measurement": "EC50", "setting": "[5]", "value": "11.4 µM (active)"}, {"measurement": "EC50", "setting": "[6]", "value": "5.57 µM (inconclusive)"}, {"measurement": "EC50", "setting": "[13]", "value": "2.46 µM (active)"}, {"measurement": "EC50", "setting": "[14]", "value": "> 180 µM (inactive)"}, {"measurement": "AC50", "setting": "INS1", "value": "1.01 µM (active)"}, {"measurement": "EC50", "setting": "[15]", "value": "> 160 µM (inactive)"}]}
